The source of these data is patent publication US20160120832A1, “LIPID SCAVENGING IN RAS CANCERS” (MEMORIAL SLOAN KETTERING CANCER CENTER, priority 2013, published 2016).

For experiment [1], the target named is T1, SCD1 (Mus musculus, UniProt P13516).
T1 construct: endogenous in cells; host or cells: iBMK cells transfected with human H-Ras V12G or myrAkt (SCD1 itself not transfected)
T1 sequence (P13516 1-355): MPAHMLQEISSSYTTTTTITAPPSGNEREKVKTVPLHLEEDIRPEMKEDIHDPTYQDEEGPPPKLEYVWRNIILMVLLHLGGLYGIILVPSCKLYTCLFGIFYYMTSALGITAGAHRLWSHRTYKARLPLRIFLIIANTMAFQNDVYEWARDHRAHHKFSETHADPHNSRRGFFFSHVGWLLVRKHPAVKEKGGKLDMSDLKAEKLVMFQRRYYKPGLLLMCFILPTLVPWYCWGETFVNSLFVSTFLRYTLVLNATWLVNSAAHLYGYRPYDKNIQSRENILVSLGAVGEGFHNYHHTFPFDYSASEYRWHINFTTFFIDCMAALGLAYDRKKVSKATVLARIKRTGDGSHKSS
The experiment can be described thus: C18:1 labeling from U-13C-glucose and U-13C-glutamine under SCD1 inhibition, iBMK cells. In kind it is cell-based. The settings on record: 200 nM CAY10566, iBMK-H-Ras^V12G and iBMK-myrAkt cells, 48 h. An excerpt: (§1) Cell lines were from ATCC with the following exceptions: the immortalized Baby Mouse Kidney (iBMK) cell lines were derived from primary kidney epithelial cells from Bax^−/−/Bak^−/− mice, immortalized by E1A and dominant-negative p53 expression, and transfected with control vector, human oncogenic H-Ras^V12G, or myrAKT (31); and the Human Pancreatic Nestin Expressing (HPNE) cells (a generous gift of A. Maitra) were developed from human pancreatic duct by transduction with a retroviral expression vector (pBABEpuro) containing the hTERT gene and transfected with control vector or human oncogenic K-Ras^G12D. Cell lines were routinely passaged in Dulbecco's Modified Eagle Medium (DMEM, Mediatech) with 25 mM glucose and 4 mM glutamine and supplemented with 10% Fetal Bovine Serum (HyClone), 25 IU/ml penicillin, and 25 μg/ml streptomycin (MP Biomedicals) and split at 80% confluence. Metabolic experiments were performed in 6 cm culture dishes with 3 ml of DMEM containing 10% dialyzed serum (DFBS, HyClone). For isotope labeling, glucose and glutamine were replaced with their U-^13C-labeled forms (Cambridge Isotope Labs). Hypoxia experiments were performed in a hypoxic glove box (0.5% or 1% O2 as indicated, 5% CO2 and 94-94.5% N2, 37° C.) (Coy Laboratory Products). Cells and media were equilibrated in low oxygen overnight before experiment initiation. CAY10566 was from Cayman Chemical. […]

A further experiment concerns A549 lung cancer cells. The experiment is described as follows: Cell growth with SCD1 inhibitor (xCELLigence real-time proliferation / culture dishes). In kind it is cell-based, human. From the text: (§2) Cell lines were from ATCC with the following exceptions: the immortalized Baby Mouse Kidney (iBMK) cell lines were derived from primary kidney epithelial cells from Bax^−/−/Bak^−/− mice, immortalized by E1A and dominant-negative p53 expression, and transfected with control vector, human oncogenic H-Ras^V12G, or myrAKT (31); and the Human Pancreatic Nestin Expressing (HPNE) cells (a generous gift of A. Maitra) were developed from human pancreatic duct by transduction with a retroviral expression vector (pBABEpuro) containing the hTERT gene and transfected with control vector or human oncogenic K-Ras^G12D. Cell lines were routinely passaged in Dulbecco's Modified Eagle Medium (DMEM, Mediatech) with 25 mM glucose and 4 mM glutamine and supplemented with 10% Fetal Bovine Serum (HyClone), 25 IU/ml penicillin, and 25 μg/ml streptomycin (MP Biomedicals) and split at 80% confluence. Metabolic experiments were performed in 6 cm culture dishes with 3 ml of DMEM containing 10% dialyzed serum (DFBS, HyClone). For isotope labeling, glucose and glutamine were replaced with their U-^13C-labeled forms (Cambridge Isotope Labs). Hypoxia experiments were performed in a hypoxic glove box (0.5% or 1% O2 as indicated, 5% CO2 and 94-94.5% N2, 37° C.) (Coy Laboratory Products). Cells and media were equilibrated in low oxygen overnight before experiment initiation. CAY10566 was from Cayman Chemical. Lipid supplements were from Avanti Polar Lipids. LPC(18:1) and LPC(18:0) were dissolved in phosphate buffered saline (PBS); MG(18:1) in methanol; and PC(16:0-18:1) in 1:9 chloroform:methanol. Organic solvents were <0.1% v/v in the medium.
(§3) Cell proliferation was determined with either Packed Cell Volume tubes (PCV, Techno Plastic Products AG) or with the xCELLigence system (Roche). Animal studies were performed following the guidelines for proper and humane use of animals in research under an IACUC-approved protocol. […] Xenograft tumors were measured biweekly and tumor volume calculated as volume=(length×width^2×π/6).

The test system of experiment [2] is iBMK-H-Ras^V12G cells. The experiment can be described thus: Cell growth with SCD1 inhibitor. In kind it is cell-based, mouse. The conditions noted are these: 10% serum, for 3 population doublings.
Source text: as §1, with “Labs).” for “Labs). Hypoxia experiments were performed in a hypoxic glove box (0.5% or 1% O2 as indicated, 5% CO2 and 94-94.5% N2, 37° C.) (Coy Laboratory Products). Cells and media were equilibrated in low oxygen overnight before experiment initiation. CAY10566 was from Cayman Chemical.”
(§4) Cell proliferation was determined with either Packed Cell Volume tubes (PCV, Techno Plastic Products AG) or with the xCELLigence system (Roche). […] Xenograft tumors were measured biweekly and tumor volume calculated as volume=(length×width^2×π/6).

Experiment [3] has as its system iBMK-myrAkt cells. The experiment is described as follows: Cell growth with SCD1 inhibitor. The experiment is classed as cell-based, mouse. The conditions noted are these: 10% serum.
Source text: as §1, with “Labs).” for “Labs). Hypoxia experiments were performed in a hypoxic glove box (0.5% or 1% O2 as indicated, 5% CO2 and 94-94.5% N2, 37° C.) (Coy Laboratory Products). Cells and media were equilibrated in low oxygen overnight before experiment initiation. CAY10566 was from Cayman Chemical.”
as §4

In the next experiment the test system is iBMK-myrAkt tumors. The experiment can be described thus: Allograft tumor growth in athymic nude mice. The conditions noted are these: Akt-driven tumors, 2.5 mg/kg CAY10566 p.o. BID, day 13 or 14 post therapy. In kind it is in vivo, mouse. As to the method: (§5) Cell proliferation was determined with either Packed Cell Volume tubes (PCV, Techno Plastic Products AG) or with the xCELLigence system (Roche). Animal studies were performed following the guidelines for proper and humane use of animals in research under an IACUC-approved protocol. To generate allografts, 1×10^7 iBMK cells were implanted in matrigel (BD Biosciences) into nu/nu athymic female mice. After establishment of palpable tumors, mice were randomized to receive 2.5 mg/kg BID CAY10566 p.o. in 0.5% methylcellulose or vehicle control. Xenograft tumors were measured biweekly and tumor volume calculated as volume=(length×width^2×π/6).

The subject of a further experiment is iBMK-H-Ras^V12G tumors. The experiment can be described thus: Allograft tumor growth in athymic nude mice. The experiment is classed as in vivo, mouse. The settings on record: Ras-driven tumors, 2.5 mg/kg CAY10566 p.o. BID, day 13 or 14 post therapy. As to the method: as §5
Experiment [4] has as its target T2, SCD1 (Homo sapiens, UniProt O00767).
T2 construct: endogenous in cells; host or cells: A549 lung cancer cells (ATCC)
T2 sequence (O00767 1-359): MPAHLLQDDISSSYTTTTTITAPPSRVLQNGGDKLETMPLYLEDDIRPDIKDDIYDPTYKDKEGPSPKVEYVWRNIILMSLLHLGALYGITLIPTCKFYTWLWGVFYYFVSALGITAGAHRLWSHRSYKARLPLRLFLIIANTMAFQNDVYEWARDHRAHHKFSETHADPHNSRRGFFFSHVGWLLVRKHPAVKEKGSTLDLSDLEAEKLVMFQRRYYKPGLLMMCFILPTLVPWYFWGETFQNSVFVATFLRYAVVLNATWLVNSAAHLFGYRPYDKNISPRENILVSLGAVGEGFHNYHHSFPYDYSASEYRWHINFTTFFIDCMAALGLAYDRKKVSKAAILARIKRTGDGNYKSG
The experiment is described as follows: C18:1 labeling from U-13C-glucose and U-13C-glutamine under SCD1 inhibition, A549 cells. The conditions noted are these: 200 nM CAY10566, A549 cells. The experiment is classed as cell-based.
Source text: as §1

The subject of another experiment is cells. The experiment is described as follows: Rescue of cells from SCD1 inhibition (discussion summary). The experiment is classed as cell-based. The settings on record: cell line not stated.
A further experiment concerns A549 cells. The experiment can be described thus: Packed cell volume with SCD1 inhibitor plus supplemented lipids. The experiment is classed as cell-based, human. The settings on record: 200 nM SCDi (CAY10566), 20 μM lipid, 72 h.
Source text: as §1, with “Labs).” for “Labs). Hypoxia experiments were performed in a hypoxic glove box (0.5% or 1% O2 as indicated, 5% CO2 and 94-94.5% N2, 37° C.) (Coy Laboratory Products). Cells and media were equilibrated in low oxygen overnight before experiment initiation. CAY10566 was from Cayman Chemical.”
as §4

A further experiment relates to iBMK cells. The experiment is described as follows: Lipid composition and C18:1 import after LPC(18:1) supplementation. The experiment is classed as cell-based, mouse. The settings on record: 20 μM LPC(18:1).
Source text: as §1

Experiment [5] relates to iBMK-H-Ras^V12G cells. The experiment can be described thus: Packed cell volume with SCD1 inhibitor plus supplemented lipids. The experiment is classed as cell-based, mouse. The conditions noted are these: 200 nM SCDi (CAY10566), 20 μM lipid, 72 h.
Source text: as §2, §3

For experiment [6], the system named is iBMK-myrAkt cells. The experiment is described as above. The experiment is classed as cell-based, mouse. The conditions noted are these: 200 nM SCDi (CAY10566), 20 μM lipid, 72 h.
Source text: as §2, §3

“Also recorded” adds a separate entry of the source.

On to `Cc1nnc(-c2ccc(N3CCC(Oc4cc(F)ccc4Cl)CC3)nn2)o1` [CAY10566], for which the “C18:1 labeling / SCD1 block” value on SCD1 [1] is listed as “fully blocked; also recorded: sufficient to fully block C18:1 labeling”. In the experiment on A549 lung cancer cells (200 nM CAY10566, 10% serum), the “cell growth in real-time cell proliferation assay” value is given as “did not impair cell growth”. The “cell growth in standard cell culture conditions” value in the experiment with A549 lung cancer cells (200 nM CAY10566, first 48 h of growth) is “did not impair cell growth”. In addition, the “cell growth, sensitivity to SCD1 inhibition” value with A549 lung cancer cells (SCD1 inhibitor, 2% serum) is listed as “sensitive”. In addition, the cell growth result is “grew almost normally” in the experiment on iBMK-H-Ras^V12G cells [2] and “severely impaired” in the experiment with iBMK-myrAkt cells [3]. For the same molecule, the “mean tumor volume relative to untreated tumors” value is 0.51+/−0.04 in the experiment on iBMK-myrAkt tumors and 0.67+/−0.05 in the experiment with iBMK-H-Ras^V12G tumors. In addition, on SCD1 [4], the “C18:1 labeling from U-13C-glucose and U-13C-glutamine” value was “completely blocked; also recorded: blocks C18:1 labeling”.
Regarding `CCCCCCCC/C=C\CCCCCCCC(=O)OC[C@@H](O)COP(=O)([O-])OCC[N+](C)(C)C` [LPC(18:1), oleoyl lysophosphatidylcholine], the “rescue of cells from SCD1 inhibition” value with cells is on record as “rescues cells from SCD1 inhibition”. The “proliferation during SCD1 inhibition with supplemented lipid” value in the experiment on A549 cells is “complete rescue”; with iBMK-myrAkt cells [6], “only partially”. The “desaturation index (C18:1/C18:0)” value with iBMK cells (72 h, iBMK-H-Ras^V12G cells) was “increased significantly and selectively”. For the same molecule, the “fraction of C18:1 derived from import” value in the experiment with iBMK cells (both iBMK-H-Ras^V12G and iBMK-myrAkt cells) is “increasing”. Further, the “proliferation / cell growth during SCD1 inhibition with supplemented lipid” value with iBMK-H-Ras^V12G cells [5] is “fully restored proliferation”.
oleolyl-monoacylglycerol [MG(18:1)]: in the experiment on iBMK-H-Ras^V12G cells [5], the “proliferation / cell growth during SCD1 inhibition with supplemented lipid” value is recorded as “restored cell proliferation”.
